# Experimental data as given in ChEMBL document CHEMBL4321794, “Discovery and Optimization of 2-Arylquinazolin-4-ones into a Potent and Selective Tankyrase Inhibitor Modulating Wnt Pathway Activity” (J Med Chem, 2019).
# Active and inactive are the calls of the source. No cut-off for these calls is given here.
# Assays:
# [1] = Intrinsic clearance in human liver microsomes assessed per mg protein in presence of NADPH by UPLC analysis; type: ADME, Microsome; details: read-out: CLH
# [2] = Intrinsic clearance in mouse liver microsomes assessed per mg protein in presence of NADPH by UPLC analysis; type: ADME, Microsome; details: read-out: CLH
# [3] = target: T1, Protein mono-ADP-ribosyltransferase PARP10 (Homo sapiens, UniProt Q53GL7); assay: Inhibition of human N-terminal FLAG-tagged/C-terminal Strep-tagged PARP10 (805 to 1025 residues) expressed in baculovirus infected Sf9 insect cells using biotinylated substrate by chemiluminescence method
# T1 sequence (Q53GL7 whole entry): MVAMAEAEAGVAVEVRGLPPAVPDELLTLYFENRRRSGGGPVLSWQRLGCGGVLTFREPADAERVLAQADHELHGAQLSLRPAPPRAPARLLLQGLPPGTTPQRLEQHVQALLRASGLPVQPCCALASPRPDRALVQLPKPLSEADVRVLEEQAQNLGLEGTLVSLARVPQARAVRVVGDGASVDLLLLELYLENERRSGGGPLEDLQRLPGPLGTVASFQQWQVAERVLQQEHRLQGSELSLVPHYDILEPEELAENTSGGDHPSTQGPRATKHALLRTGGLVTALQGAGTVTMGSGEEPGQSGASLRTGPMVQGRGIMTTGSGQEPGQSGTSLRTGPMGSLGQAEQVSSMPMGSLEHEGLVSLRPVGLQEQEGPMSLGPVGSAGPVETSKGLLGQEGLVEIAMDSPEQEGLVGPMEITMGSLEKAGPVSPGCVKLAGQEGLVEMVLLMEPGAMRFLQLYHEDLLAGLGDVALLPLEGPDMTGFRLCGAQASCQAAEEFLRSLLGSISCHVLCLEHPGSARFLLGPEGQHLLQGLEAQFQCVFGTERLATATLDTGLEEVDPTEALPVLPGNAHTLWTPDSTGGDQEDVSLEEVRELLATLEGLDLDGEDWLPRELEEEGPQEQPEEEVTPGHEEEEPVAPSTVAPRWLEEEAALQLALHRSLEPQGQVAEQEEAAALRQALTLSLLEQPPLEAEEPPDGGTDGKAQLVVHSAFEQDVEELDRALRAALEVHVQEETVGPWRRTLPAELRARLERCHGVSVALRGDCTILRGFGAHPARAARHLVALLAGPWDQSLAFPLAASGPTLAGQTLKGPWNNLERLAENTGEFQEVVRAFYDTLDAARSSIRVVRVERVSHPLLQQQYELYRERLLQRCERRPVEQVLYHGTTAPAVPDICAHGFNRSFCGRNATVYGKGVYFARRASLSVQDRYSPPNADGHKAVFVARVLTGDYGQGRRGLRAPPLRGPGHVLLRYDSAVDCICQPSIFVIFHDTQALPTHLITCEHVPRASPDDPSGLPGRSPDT
# Mus musculus [4] = assay: Ex vivo inhibition of tankyrase 1/2 in human DLD1 cells xenografted in immunodeficient athymic nude mouse assessed as increase in axin-2 level in tumor lysates at 10 to 90 mg/kg, po administered via gavage by luminex based bead assay; type: functional, organism-based; details: Neoplasm, Lysate, TDE = time-dependent effect
# [5] = Clearance in mouse; type: ADME, organism-based; details: in vivo
# [6] = Time at which free-drug concentration exceeds in vitro cellular EC50 for inhibition of tankyrase 1/2 in human DLD1 cells assessed as increase in axin2 accumulation in mouse xenografted with human DLD1 at 90 mg/kg, po administered via gavage; type: organism-based; details: in vivo
# [7] = target: Poly [ADP-ribose] polymerase 1 (Homo sapiens, UniProt P09874); assay: Inhibition of N-terminal GST-tagged recombinant full length human PARP1 expressed in Baculovirus infected Sf9 cells using biotinylated substrate after 1 hr by chemiluminescence method
# Poly [ADP-ribose] polymerase 1, sequence (P09874 whole entry): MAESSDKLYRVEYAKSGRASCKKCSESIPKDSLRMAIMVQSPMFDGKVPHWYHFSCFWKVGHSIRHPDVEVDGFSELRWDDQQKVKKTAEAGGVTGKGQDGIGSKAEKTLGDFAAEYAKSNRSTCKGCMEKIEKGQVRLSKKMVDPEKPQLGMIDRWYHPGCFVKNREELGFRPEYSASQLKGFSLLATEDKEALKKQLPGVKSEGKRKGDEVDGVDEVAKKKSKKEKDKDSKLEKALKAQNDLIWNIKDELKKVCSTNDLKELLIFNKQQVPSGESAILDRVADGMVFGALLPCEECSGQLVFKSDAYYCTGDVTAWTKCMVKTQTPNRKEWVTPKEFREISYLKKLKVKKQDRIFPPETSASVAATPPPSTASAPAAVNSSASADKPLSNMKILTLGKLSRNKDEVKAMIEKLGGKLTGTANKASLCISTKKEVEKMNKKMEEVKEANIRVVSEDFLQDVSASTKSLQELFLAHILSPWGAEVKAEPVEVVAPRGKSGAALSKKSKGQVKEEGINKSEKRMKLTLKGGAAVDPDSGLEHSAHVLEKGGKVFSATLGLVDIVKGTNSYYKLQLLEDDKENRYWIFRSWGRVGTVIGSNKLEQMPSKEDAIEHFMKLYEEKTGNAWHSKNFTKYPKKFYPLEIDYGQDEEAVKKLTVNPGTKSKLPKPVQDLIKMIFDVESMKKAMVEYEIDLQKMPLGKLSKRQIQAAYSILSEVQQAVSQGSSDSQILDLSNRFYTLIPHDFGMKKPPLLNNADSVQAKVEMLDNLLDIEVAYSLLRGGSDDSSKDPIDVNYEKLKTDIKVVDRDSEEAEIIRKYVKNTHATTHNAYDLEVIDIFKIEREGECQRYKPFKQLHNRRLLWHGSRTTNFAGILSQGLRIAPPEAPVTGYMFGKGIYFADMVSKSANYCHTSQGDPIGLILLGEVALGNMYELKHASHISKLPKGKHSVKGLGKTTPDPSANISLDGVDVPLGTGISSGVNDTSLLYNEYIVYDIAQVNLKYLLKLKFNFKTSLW
# [8] = Time at which free-drug concentration exceeds in vitro cellular EC50 for inhibition of tankyrase 1/2 in human DLD1 cells assessed as increase in axin2 accumulation in mouse at 30 mg/kg, po; type: organism-based; details: in vivo
# [9] = Time at which free-drug concentration exceeds in vitro cellular EC50 for inhibition of tankyrase 1/2 in human DLD1 cells assessed as increase in axin2 accumulation in mouse xenografted with human DLD1 at 30 mg/kg, po administered via gavage; type: organism-based; details: in vivo
# Mus musculus [10] = assay: Ex vivo inhibition of tankyrase 1/2 in human DLD1 cells xenografted in immunodeficient athymic nude mouse assessed as increase in axin-2 level in tumor lysates at 10 mg/kg, po administered via gavage measured after 12 hrs by luminex based bead assay; type: functional, organism-based; details: Neoplasm, Lysate
# [11] = target: T2, Protein mono-ADP-ribosyltransferase PARP12 (Homo sapiens, UniProt Q9H0J9); assay: Inhibition of human N-terminal His/GST-tagged PARP12 (500 to 701 residues) expressed in baculovirus infected Sf9 insect cells using biotinylated substrate by chemiluminescence method
# T2 sequence (Q9H0J9 whole entry): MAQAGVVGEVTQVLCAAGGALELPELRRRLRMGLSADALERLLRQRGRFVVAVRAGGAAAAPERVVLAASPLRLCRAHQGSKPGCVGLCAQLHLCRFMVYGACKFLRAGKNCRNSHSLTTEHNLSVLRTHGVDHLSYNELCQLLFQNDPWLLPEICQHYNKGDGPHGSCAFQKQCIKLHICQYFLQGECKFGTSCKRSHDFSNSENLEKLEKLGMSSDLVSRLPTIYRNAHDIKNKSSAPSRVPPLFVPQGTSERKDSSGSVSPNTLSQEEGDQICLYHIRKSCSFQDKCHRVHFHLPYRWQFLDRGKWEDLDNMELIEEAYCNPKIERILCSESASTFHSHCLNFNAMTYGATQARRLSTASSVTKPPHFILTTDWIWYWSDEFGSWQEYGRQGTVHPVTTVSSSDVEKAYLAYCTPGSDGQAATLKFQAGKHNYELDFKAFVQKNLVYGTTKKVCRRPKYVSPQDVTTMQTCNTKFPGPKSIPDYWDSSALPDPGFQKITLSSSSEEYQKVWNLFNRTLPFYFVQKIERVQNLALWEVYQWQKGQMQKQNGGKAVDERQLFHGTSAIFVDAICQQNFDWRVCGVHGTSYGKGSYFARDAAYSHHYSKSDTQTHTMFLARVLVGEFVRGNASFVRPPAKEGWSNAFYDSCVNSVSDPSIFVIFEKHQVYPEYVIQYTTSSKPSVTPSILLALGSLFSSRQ
smiles,measurement,setting,value
CC(C)(O)c1ccc(-c2nc3c(F)cc(F)cc3c(=O)[nH]2)cc1,microsomal CLint,[1],< 10 µL/min/mg
same,microsomal CLint,[2],22 µL/min/mg
same,IC50,[3],> 10 µM
same,inhibition,Mus musculus [4],Tde
same,clearance,[5],6.83 mL/min/kg
same,T>fEC50,[6],>= 12 hr
same,IC50,[7],0.71 µM
same,T>fEC50,[8],>= 20 hr
same,T>fEC50,[9],>= 12 hr
same,inhibition,Mus musculus [10],Active
same,IC50,[11],> 10 µM
